# Tests used:
# IL-6 = assay: Glycated albumin-stimulated endothelial cell production of cytokine IL-6 (ELISA); assay type: cell-based; conditions: read-out: % of inhibition of proinflammatory cytokine IL-6
# Excerpt: The effectiveness of the compounds of the present invention in inhibiting glycated protein- and AGE-induced inflammation can be determined using the assays described herein and in U.S. Provisional Patent Application Ser. No. 60/259,306, which is incorporated by reference in herein its entirety. Such assays comprise measurement of the specific activity of biological components involved in a known cellular response. The assays provide a measurable response in which the activity of the compounds is determined. One aspect of the present invention comprises measurement of the effects of compounds on an inflammatory response by cells to the presence of a stimulating agent. […] The amount of cytokines produced is determined by measurement protocols known to those skilled in the art. The compounds of the present invention are then added to the assay and the production of cytokines is measured. From the comparison of the assay without the compound with the assay with the compound, the biological effect of the compound can be determined. […]
# Assays comprise endothelial cells that are stimulated in an inflammatory response by the presence of the glycated protein, glycated human serum albumin. […] Preferably, although not required, the amount of cytokine produced is determined using immunological methods, such as ELISA assays. […]
# MCP-1 = assay: Glycated albumin-stimulated endothelial cell production of cytokine MCP-1 (ELISA); assay type: cell-based; conditions: read-out: % of inhibition of proinflammatory cytokine MCP-1; for inhibition at 5 µM: concentration 5 μM
# Excerpt: The effectiveness of the compounds of the present invention in inhibiting glycated protein- and AGE-induced inflammation can be determined using the assays described herein and in U.S. Provisional Patent Application Ser. No. 60/259,306, which is incorporated by reference in herein its entirety. Such assays comprise measurement of the specific activity of biological components involved in a known cellular response. The assays provide a measurable response in which the activity of the compounds is determined. One aspect of the present invention comprises measurement of the effects of compounds on an inflammatory response by cells to the presence of a stimulating agent. Yet another aspect of the present invention includes an assay comprising endothelial cells that are stimulated by the addition of a glycated protein, the stimulating agent. The endothelial cells respond by producing specific cytokines. The amount of cytokines produced is determined by measurement protocols known to those skilled in the art. The compounds of the present invention are then added to the assay and the production of cytokines is measured. From the comparison of the assay without the compound with the assay with the compound, the biological effect of the compound can be determined. The compound may have an inhibitory effect, a stimulatory effect, or no effect at all. Compounds for treatment of inflammation include those that have an inhibitory effect.
# Assays comprise endothelial cells that are stimulated in an inflammatory response by the presence of the glycated protein, glycated human serum albumin. Such endothelial cells produce cytokines. A method in accordance with the present invention comprises measurement of the amount of the cytokine IL-6, and another aspect of the present invention comprises measurement of the amount of the cytokine MCP-1. Preferably, although not required, the amount of cytokine produced is determined using immunological methods, such as ELISA assays. The methods of the present invention are not limited by the type of assay used to measure the amount of cytokine produced, and any methods known to those skilled in the art and later developed can be used to measure the amount of cytokines produced in response to the stimulating agent and to the compound having unknown activity.
# Glycated albumin stimulates endothelial production of IL-6 and MCP-1. […] Because of the well established role of these cytokines in vascular diseases, screening for compounds that block AGE-induction of these cytokines provides a novel approach for identifying therapeutic agents that block AGE-induced inflammation in vivo.
# Once the baseline response to the stimulating agent for the production of cytokines by the endothelial cells is established, thus comprising the control levels for the screening assay, the methods comprise addition of compounds having unknown activities. The effect of the compound on the baseline response is determined by comparing the amount of cytokine produced in the presence of the stimulating agent and the amount of cytokine produced in the presence of the stimulating agent and the compound of the present invention. In one method, compounds that have inhibitory effects on the inflammation of the cells in the presence of glycated albumin are then used as therapeutic agents. One or more compounds may be added to the screening assay. Combinations or mixtures of compounds can be added. Different amounts and formulations of the compounds are added to determine the effects on the screening assay. The screening assay also may be used to determine stimulatory compounds or compounds that have no effects in the assay.
smiles,measurement,setting,value
C/C(=C1\SC(=O)NC1=O)c1ccc(OCCOc2c(-c3ccc(Cl)cc3)n(C)c3ccccc3c2=O)cc1,inhibition at 5 µM,IL-6; concentration 5 μM,49%
Cn1c(-c2ccc(Br)cc2)c(OCCOc2ccc(/C=C3/SC(=O)NC3=O)cc2)c(=O)c2ccccc21,inhibition at 5 µM,MCP-1,44%
C/C(=C1\SC(=O)NC1=O)c1ccc(OCCOc2c(-c3ccc(F)c(F)c3)n(C)c3ccccc3c2=O)cc1,inhibition at 4.4 µM,MCP-1; concentration 4.4 μM,50%
C/C(=C1/SC(=O)NC1=O)c1ccc(OCCOc2c(-c3ccc(F)c(F)c3)n(C)c3ccccc3c2=O)c(Cl)c1,inhibition at 5 µM,MCP-1,61%
CCn1c(-c2ccc(F)cc2)c(OCCOc2ccc(/C(C)=C3/SC(=O)NC3=O)cc2)c(=O)c2ccccc21,inhibition at 6.5 µM,MCP-1; concentration 6.5 μM,50%
C/C(=C1\SC(=O)NC1=O)c1ccc(OCCOc2c(-c3ccc(F)c(F)c3)n(C)c3ccccc3c2=O)c(F)c1,inhibition at 7 µM,MCP-1; concentration 7 μM,50%
"COc1cc(OC)c2c(=O)c(OCCOc3ccc(/C(C)=C4\SC(=O)NC4=O)cc3)c(-c3ccc(OC)c(OC)c3)oc2c1 [Example 1, 5-[-1-(4-{2-[2-(3,4-Dimethoxyphenyl)-5,7-dimethoxy-4-oxo-4h-3-chromenyloxy]ethoxy}phenyl)ethylidene]-1,3-thiazolane-2,4-dione]",melting point,,205 to 206 °C
"CCCc1nn(C)c2c(=O)n(CCNc3ccc(/C(C)=C4\SC(=O)NC4=O)cc3)c(-c3ccc(OC)c(OC)c3)nc12 [Example 46, 5-[(E,Z)-1-(4-{2-[5-(3,4-Dimethoxyphenyl)-1-methyl-7-oxo-3-propyl-6,7-dihydro-1H-pyrazolo[4,3-d]pyrimidin-6-yl]ethylamino}phenyl)ethylidene]1,3-thiazolane-2,4-dione]",melting point,,215 to 218 °C
C/C(=C1\SC(=O)NC1=O)c1ccc(OCCOc2c(-c3ccc(F)cc3)n(C)c3ccccc3c2=O)cc1 [drawing 117],inhibition at 4.64 µM,IL-6; concentration 4.64 μM,50%
C/C(=C1\SC(=O)NC1=O)c1ccc(OCCOc2c(-c3ccc(F)cc3)n(C)c3ccccc3c2=O)cc1 [drawing 118],inhibition at 7.9 µM,MCP-1; concentration 7.9 μM,50%

# From patent US7456288B2, “Heterocyclic compounds and methods of making and using thereof” (Reddy US Therapeutics, Inc., priority 2003, dated 2008)
